Results on two molecules are retold here after patent US9708628B2, “Cationic lipid having improved intracellular kinetics” (NOF CORPORATION, priority 2011, dated 2017).

SMILES strings stand for the structures.

One data set concerns HT1080 cells. The data set is described as follows: Endosomal escape efficiency (rhodamine-pDNA, Lysotracker Green, 6 hr). It counts as cell-based. The conditions noted are these: 6 hr after transfection. As for the experimental part:
For MEND preparation, the Rhodamine-labeled pDNA prepared by the method of [Experimental Example 1] (4) was used. When MEND encapsulating rhodamine-labeled pDNA was prepared, 50% of the pDNA solution described in [Experimental Example 1] (1) was replaced by rhodamine-labeled pDNA.
MENDs having a composition of B-2-4 (Example 4):DOPE:Chol=3:3:4, B-2 (Example 1):SOPE:Chol=5:3:2 were prepared by the method described in [Experimental Example 1] (2). For the preparation, PEG2000-DMG was used as PEG lipid, and MEND solutions corresponding to 0.55 mM of the lipid concentration were prepared.
HT1080 cells were plated on a glass bottom dish at 5×10^4 cells/2 mL/dish 24 hr before. MEND was diluted with DMEM (FBS 10%+) to achieve pDNA 1.6 μg/2 mL and transfected into cells. After 5.5 hr, Lysotracker Green (Life technologies) was added at 2 μL/dish. 6 hr after the transfection, the cells were washed twice with heparin (20 units/mL, 2 mL), Krebs buffer (1 mL) was added, and the cells were observed by a confocal laser scan microscope.
Rhodamine-labeled pDNA, endosome/lysosome and nucleus were shown in pseudo colors of red, green and blue, respectively. The endosomal escape efficiency was calculated according to the following formula.

In a further data set the test system is liver, lung and spleen. Nature of the data set: Gene expression activity in liver, lung and spleen after tail vein administration of MEND. It counts as in vivo, ICR mice. Conditions: 40 μg DNA. The procedure:
A solution of pDNA encoding luciferase gene and protamine (maker) solution were diluted with 10 mM HEPES buffer to 0.3 mg/mL and 0.24 mg/mL, respectively. […] A solution (750 μL) of the electrostatic complex composed of gene and protamine was mixed with the lipid solution (750 μL), and the mixture was quickly stirred, diluted with 10 mM HEPES solution (pH 5.3) to 15 mL, and subjected to ultrafiltration using Amicon® Ultra-15 100K device at 3,000 rpm, 15 min, 25° C. The solution after ultrafiltration was diluted with 100 mM HEPES buffer (pH 7.4), and subjected to the ultrafiltration again. The solution was diluted with 10 mM HEPES buffer to 750 μL. […] The mice were euthanized by a cervical spine […] method 6, 24, 48, 72 hr later, and the liver, lung and spleen were isolated and frozen with liquid nitrogen. They were thawed in a Lysis buffer to prepare homogenates. They were centrifuged at 13,000 rpm, 10 min, 4° C., and the supernatant was collected and used as a measurement sample. The sample solution (20 μL) was mixed with a luciferase substrate (50 μL), and the luciferase activity was measured using Luminescenser-PSN (AB2200 ATTO). In addition, the concentration of the protein in the sample was quantified using a BCA protein assay kit, and the gene expression activity was measured as RLU/mg protein.

A further data set concerns liver. Nature of the data set: Intrahepatic behavior of MEND (intravital confocal microscopy). The conditions noted are these: Rhodamine-DOPE labeled MEND, 40 μg DNA/mouse, about 10 min filming. Type of data set: in vivo, ICR mice. As for the experimental part: Rhodamine-DOPE was added to R8/GALA-MEND in an amount of 0.1% of the total lipid concentration, and to B-2 MEND in an amount of 1% of the total lipid concentration. 50 mg/mL Sodium pentobarbital (Nacalai Tesque) was diluted 5-fold with saline and intraperitoneally administered to ICR mice (5-week-old male) for anesthesia. Griffonia simplicifolia Lectin I-B4 Isolectin, FITC Conjugate (VECTOR Laboratories, about 80 μL) was administered to the mice under anesthesia from the tail vein to stain the vascular endothelial cells. […] A winged intravenous indwelling needle connected with an extension tube filled with the MEND solution was indwelled in the tail vein of the mouse. To prevent dislocation of the observation site due to the heart beat of the mouse, a device for fixing the liver by adsorption (Shimizu K et al., J Biosci Bioeng. 112(5): 508-10) was used, and the mouse was observed using a confocal microscope (Nikon A1) with a 60-fold water immersion lens.

A further data set relates to IFN-γ. Nature of the data set: Cytokine production by MEND administration, IFN-γ (ELISA). It counts as in vivo, ICR mice. The conditions noted are these: pCpGfree-Luc(0), 40 μg DNA. The procedure: (§1) MENDs used in [Experimental Example 12] were each administered to 5-week-old male ICR mice from the tail vein in an amount corresponding to 40 μg DNA. 1, 3, 6, 24 hr later, the blood was collected from the heart, and TNF-α, IFN-γ, IL-12p70 were measured using Quantikine ELISA kit (R&D Systems).
Background: In an ELISA, binding on a coated surface is turned into a signal by an enzyme label.

Another data set deals with IL-12p70. The data set is described as follows: Cytokine production by MEND administration, IL-12p70 (ELISA). The conditions noted are these: pCpGfree-Luc(0), 40 μg DNA. Type of data set: in vivo, ICR mice. As for the experimental part:
as §1

Consider `CC1=C(/C=C/C(C)=C/C=C/C(C)=C/C(=O)OCCCN(C)CCSSCCN(C)CCCOC(=O)/C=C(C)/C=C/C=C(C)/C=C/C2=C(C)CCCC2(C)C)C(C)(C)CCC1` [Example B-2-4], for which the endosomal escape efficiency entry with HT1080 cells was “significantly higher endosomal escape efficiency than B-2”.

With `CCCCCCCCCCCCCC(=O)OCCCN(C)CCSSCCN(C)CCCOC(=O)CCCCCCCCCCCCC` [Example B-2], in the data set on liver, lung and spleen, the “gene expression activity in the lung and spleen (organ selectivity)” value is “background-level”. Besides, the “time of peak/maximum gene expression activity” value in the data set with liver, lung and spleen (liver) is 48 h. Besides, in the data set with liver, the “behavior in liver blood vessels” value was “coagulation was not formed and the MEND uniformly flows through the blood vessels”. For the same molecule, the IFN-γ blood concentration entry with IFN-γ is given as “maintained the normal value at any time point”. The IL-12p70 blood concentration result in the data set on IL-12p70 is listed as “maintained the normal value at any time point”.
